Patent US5384119A, “Method of preventing neutrophil mediated connective tissue damage” (Merrell Dow Pharmaceuticals Inc., priority 1993, dated 1995)
Read-outs that look alike come from different tables or passages of the source.

Experiments:
[1] = molecular target: T1, elastase (Homo sapiens, UniProt P08246); test: Elastase cleavage of synthetic substrate N-methoxysuccinyl-Ala-Ala-Pro-Val-p-nitroanalide; type: biochemical; settings: 2 μg of elastase, FIG. 1, read-out: IC50 for the inhibition of elastase
T1 sequence (P08246 30-247 limits assumed): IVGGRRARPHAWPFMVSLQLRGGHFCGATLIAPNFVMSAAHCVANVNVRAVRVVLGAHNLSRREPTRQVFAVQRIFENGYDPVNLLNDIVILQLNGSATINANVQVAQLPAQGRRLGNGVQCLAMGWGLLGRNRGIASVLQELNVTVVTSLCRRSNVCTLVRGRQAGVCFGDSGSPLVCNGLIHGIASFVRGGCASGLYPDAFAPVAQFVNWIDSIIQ
Description: (§1) Elastase activity is assayed using the specific substrate, N-methoxysuccinyl-Ala-Ala-Pro-Val-p-nitroanalide, and cathepsin G activity was measured using N-succinyl-Ala-Pro-Phe-p-nitroanalide. The assay buffer, 0.1M HEPES with 0.5M NaCl and 0.1% Brij-35, is used to dilute the elastase substrate to a final concentration of 0.2 mM and the cathepsin G substrate to 1 mM. The appropriate substrate in 2 ml of assay buffer is incubated at 37° C. in a heated spectrophotometer cell and the reaction is started by the addition of enzyme. In experiments where inhibitors were tested, the inhibitors were incubated with the enzyme for 5 min before the addition of substrate. […] was continuously monitored at 410 nm using a diode array spectrophotometer. Kinetic constants were determined using the kinetics software of the spectrophotometer.
(§2) The ability of several sulfated polymers to inhibit elastase and cathepsin G degradation of their respective substrates was examined. MDL-101,028, a compound falling within the scope of the claimed invention, where the value of n is 6, and 4,4'-Diisothiocyanatostilbene-2,2'-disulfonic acid, internally identified as MDL-101,114 (DIDS) inhibited both elastase and cathepsin G in a dose-dependent manner.

[2] = molecular target: T2, cathepsin G (Homo sapiens, UniProt P08311); test: Cathepsin G cleavage of synthetic substrate N-succinyl-Ala-Pro-Phe-p-nitroanalide; type: biochemical; settings: 2 micrograms of cathepsin G, FIG. 2, read-out: IC50 for the inhibition of cathepsin G
T2 construct: Both purified human neutrophil elastase and cathepsin G degrade CPG; from tissue; host or cells: human neutrophils
T2 sequence (P08311 21-244 limits assumed): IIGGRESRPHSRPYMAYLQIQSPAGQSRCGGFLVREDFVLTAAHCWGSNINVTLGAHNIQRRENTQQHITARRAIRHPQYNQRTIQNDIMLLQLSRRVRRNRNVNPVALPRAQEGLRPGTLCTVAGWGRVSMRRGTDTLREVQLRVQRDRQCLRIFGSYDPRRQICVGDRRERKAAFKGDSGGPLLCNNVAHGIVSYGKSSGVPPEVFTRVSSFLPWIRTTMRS
Description: as §1, §2

[3] = molecular target: T3, purified human neutrophil elastase (Homo sapiens, UniProt P08246); test: Elastase mediated degradation of 35S-labeled cartilage matrix proteoglycan (CPG); type: biochemical; settings: cartilage discs, 4 hours at 37° C., FIG. 3
T3 construct: Both purified human neutrophil elastase and cathepsin G degrade CPG; from tissue; host or cells: human neutrophils
T3 sequence (P08246 30-247 limits assumed): T1 sequence (P08246 30-247 limits assumed)
Description: (§3) Fresh bovine nasal septa were obtained from a local abattoir and 4 mm cartilage cylinders were prepared using a No. 2 cork borer. The cylinders were sliced into 1 mm discs. The top and bottom discs were discarded and the remaining cartilage discs were pooled, washed three times in HBSS and resuspended in Dulbecco's Modified Eagles Medium (DMEM) with antibiotics and supplements. The sulfated sugars that constitute the glycosaminoglycan side chains of cartilage proteoglycan were radiolabeled by the addition of 10 μCi/ml of Na2^35 SO4 followed by incubation overnight at 37° C. with gentle rocking. […]
(§4) The ability of neutrophil proteases to degrade connective tissue matrix was measured by incubating ^35 S-radiolabeled cartilage discs with neutrophil lysate, purified elastase or cathepsin G in serumless media for 4 hours at 37° C. and collecting the supernatants and counting the radiolabeled material in the supernatants and discs. The radioactivity remaining in the cartilage discs after removal of the supernatant was assayed by completely digesting the discs in 6M HCl at 100° C. for 1 hour, removing the HCl by vacuum evaporation and resuspending the dried material in 0.5 ml HBSS. Supernatants and processed discs were counted in a Beckman LS 3801 scintillation counter. The data were expressed as the percent at ^35 S label released into the supernatant. […]

[4] = molecular target: T2, cathepsin G; test: Cathepsin G mediated degradation of 35S-labeled cartilage matrix proteoglycan (CPG); type: biochemical; settings: cartilage discs, 4 hours at 37° C., FIG. 4
Description: as §3, §4

[5] = test system: Human neutrophil lysate; test: Human neutrophil lysate mediated degradation of CPG; type: biochemical; settings: lysate 1:100, 4 hour at 37° C., FIG. 5
Description: Human neutrophil granule lysates were prepared by resuspending 2.5×10^8 in 4 ml of […] sucrose and sonicating for 30 seconds using a microtip probe. […] The neutrophil lysate was centrifuged at 1000×g for 10 min. at 4° C., the supernatant was collected and centrifuged at 30,000×g for 30 min. at 4° C. and the pellet containing neutrophil granules was resuspended in 2 ml of 0.05M sodium acetate buffer, pH 5.5, containing 1M NaCl and 0.1% Brij-35 and kept on ice for 30 min. with several brief sonications of approximately 30 seconds during the incubation period. […] The granule lysate was centrifuged at 30,000×g for 30 min. at 4° C. and the supernatant was collected, tested for elastase and cathepsin G content using synthetic substrates as described above, aliquoted and stored at […] until used.
Fresh bovine nasal septa were obtained from a local abattoir and 4 mm cartilage cylinders were prepared using a No. 2 cork borer. The cylinders were sliced into 1 mm discs. The top and bottom discs were discarded and the remaining cartilage discs were pooled, washed three times in HBSS and resuspended in Dulbecco's Modified Eagles Medium (DMEM) with antibiotics and supplements. […]
as §4

[6] = test system: Human neutrophils; test: Neutrophil viability (trypan blue exclusion, lactic dehydrogenase release); type: cell-based
Description: (§5) Radiolabeled cartilage discs were placed into the wells of 96-well microtiter plates and overlayed with human neutrophils suspended in DMEM containing 10% FCS. The neutrophils were stimulated by the addition of 1 mg/ml of opsonized zymosan and incubated for 4 hours at 37° C. with 5% CO2. Connective tissue matrix degradation was quantitated by the amount of radiolabel released. In experiments using protease inhibitors, the inhibitors were added immediately after the neutrophils. The viability of the neutrophils incubated with the protease inhibitors was determined by assaying the supernatants for lactic dehydrogenase (LDH) and by neutrophil exclusion of trypan blue. In addition, the effect of protease inhibitors on primary granule enzyme secretion was monitored by measuring the release of myeloperoxidase.
(§6) The percentage of neutrophils stimulated with zymosan in media for 4 hours that excluded trypan blue was 85% compared to 77%-87% for neutrophils incubated with MDL-101,028 at doses of 4, 10, and 25 μM, respectively. This correlated with LDH release which was 9% for stimulated neutrophils treated with media, compared to 7-11% for neutrophils incubated with MDL-101,028 at concentrations of 4-25 μM.

[7] = test system: Human neutrophils; test: Primary granule enzyme secretion (myeloperoxidase release) from neutrophils; type: cell-based; settings: stimulated neutrophils
Description: as §5, §6

[8] = test system: human neutrophil elastase; test: Elastase induced pulmonary hemorrhage in rats; type: in vivo, Male Sprague Dawley rats; settings: rat; for Inhibition of lung hemorrhage (hemoglobin in lavage fluid): 100 μg elastase, FIG. 7; for Inhibition of lung hemorrhage: intratracheal, FIG. 8
Description: Male Sprague Dawley rats were anesthetized with chloral hydrate (300 mg/kg) and either saline or human neutrophil elastase was administered intratracheally. Briefly, rats were placed on a surgical board, ventral side up, and their mouths held open using a rubber band placed over their incisors. The tongue was held to the side and 100 micro liters of elastase solution (1 mg/ml) was administered into the trachea with the aid of a bright light source and a 3 inch, 22 gauge blunt-end needle. One hour after elastase administration, the rats were sacrificed using CO2 and the trachea was surgically exposed and cannulated. The lungs were lavaged with 10 ml of saline and the hemoglobin content was-determined using the cyanmethemoglobin assay. In experiments where inhibitors were tested, the compounds were given intratracheally in 100 μl of saline at various times before elastase administration.
Intratracheal instillation of human leukocyte elastase produced acute lung injury as assessed by hemorrhage (FIG. 7). The hemorrhage was quantified by measuring the hemoglobin content of the pulmonary lavage fluid. […] When MDL-101,028 was administered intratracheally immediately before elastase (within 30 seconds) at doses of 280 μg, 700 μg, or 2800 μg, lung hemorrhage was inhibited by 48%, 90%, and 90% respectively (FIG. 7).
MDL-101,028 was administered to rats at various time intervals before instillation of elastase to determine the duration of action.

With `O=S(=O)(O)c1cc(N=C=S)ccc1C=Cc1ccc(N=C=S)cc1S(=O)(=O)O` [DIDS, 4,4'-Diisothiocyanatostilbene-2,2'-disulfonic acid, reference compound] the IC50 [1] was 1100 nM, the IC50 [2] was 1400 nM and the IC50 ([3]; read-out: IC50, elastase mediated cartilage degradation) was 38 µM. It also gave an IC50 ([4]; read-out: IC50, cathepsin G mediated cartilage degradation) of 50 µM.

Work on `Cc1ccc(NC(=O)Nc2ccc(-c3ccc(NC(=O)Nc4ccc(-c5ccc(NC(=O)Nc6ccc(-c7ccc(NC(=O)Nc8ccc(-c9ccc(NC(=O)Nc%10ccc(-c%11ccc(NC(=O)Nc%12ccc(-c%13ccc(NC(=O)Nc%14ccc(C)cc%14)cc%13S(=O)(=O)O)c(S(=O)(=O)O)c%12)cc%11S(=O)(=O)O)c(S(=O)(=O)O)c%10)cc9S(=O)(=O)O)c(S(=O)(=O)O)c8)cc7S(=O)(=O)O)c(S(=O)(=O)O)c6)cc5S(=O)(=O)O)c(S(=O)(=O)O)c4)cc3S(=O)(=O)O)c(S(=O)(=O)O)c2)cc1` [MDL-101,028] yielded an IC50 [1] of 40 nM, an IC50 [2] of 80 nM and an IC50 ([3]; read-out: IC50, elastase mediated CPG degradation) of about 8 µM. For the same compound, the IC50 ([4]; read-out: IC50, cathepsin G mediated CPG degradation) was about 9 µM, the “Inhibition of CPG degradation by neutrophil lysate” value (“Inhibition of CPG degradation” for short) ([5]; 4 μmolar) was 54% and the “Inhibition of CPG degradation” value ([5]; 10 μmolar) was 70%. For the same compound, the “Inhibition of CPG degradation” value ([5]; 25 μmolar) was 79%, the LDH release ([6]; concentrations of 4-25 μM, stimulated neutrophils (media control 9%), 240 min) was 7-11% and the “Percentage of neutrophils that excluded trypan blue” value ([6]; doses of 4, 10, and 25 μM, zymosan stimulated, 4 hours (media control 85%)) was 77%-87%. For the same compound, the “Viability of the neutrophils” value ([6]; trypan blue exclusion and lactic dehydrogenase release) was “not diminished”, the “Myeloperoxidase release from neutrophils” value [7] was “not inhibited” and the “Inhibition of lung hemorrhage (hemoglobin in lavage fluid)” value ([8]; 280 μg intratracheally immediately before elastase (within 30 seconds)) was 48%. The “Inhibition of lung hemorrhage (hemoglobin in lavage fluid)” value ([8]; 700 μg intratracheally immediately before elastase (within 30 seconds)) was 90%, the “Inhibition of lung hemorrhage (hemoglobin in lavage fluid)” value ([8]; 2800 μg intratracheally immediately before elastase (within 30 seconds)) was 90% and the “Inhibition of lung hemorrhage” value ([8]; administered 1 hour before elastase) was 61%. The “Inhibition of lung hemorrhage” value ([8]; administered 2 hours before elastase) was 63%, the “Inhibition of lung hemorrhage” value ([8]; administered 4 hours before elastase) was 20% and the Duration of action ([8]; intratracheal route) was “greater than two hours and less than four hours”.
